# In patent US7541366B2, “Pyrrolo[3,2-c]pyridine derivatives and processes for the preparation thereof” (YUHAN Corporation, priority 2004, dated 2009):
# Legend:
# [1] = molecular target: T1, proton pump (H+/K+-ATPase) (Sus scrofa, UniProt P19156); assay: Inhibitory effects on proton pump (H+/K+-ATPase) activity; assay type: biochemical; settings: hog gastric vesicles, K+ stimulated H+/K+-ATPase activity, Pi at 620 nm, 30 minutes at 37° C.
# T1 construct: used as an enzyme source of the in vitro enzyme reaction assay of proton pump; from tissue; host or cells: hog gastric fundic mucosa; membrane vesicles, lyophilized
# Protocol: 1-1. Preparation of gastric proton pump vesicles
# The hog fundic regions containing parietal and peptic cells were scraped with slide-glass. The collected cells were suspended in 10 ml of 0.25M sucrose buffer and homogenized using a tight-fitting Teflon-glass homogenizer. The homogenate was centrifuged for 35 min at 8,000 rpm and the pellet was discarded. The supernatant was further centrifuged for 75 min at 25,000 rpm. The resulting pellets were re-suspended in the sucrose buffer (10 ml), and then the suspension was laid onto discontinuous density gradients consisting of 0.25M sucrose buffer and isolation medium containing 9% Ficoll (w/w). After being centrifuged for 3 hours and 15 minutes at 100,000×g, the material at the interface of sucrose buffer and Ficoll solution was collected and then centrifuged for 40 minutes at 100,000×g. The resulting pellets were re-suspended in 1 ml of 5 mM Hepes/Tris buffer (pH 6.1). This material was lyophilized and stored at −70° C. and used as an enzyme source of the in vitro enzyme reaction assay of proton pump.
# 1-2. Measurement of inhibitory effects on proton pump (H^+/K^+-ATPase) activity
# The inhibitory effects of the compounds of the present invention against proton pump activity were evaluated in 96-well plate. In this assay, the K^+specific H^+/K^+-ATPase activity was calculated based on the difference between the activity of H^+/K^30 -ATPase activity with K^30 and without K^30 ion. In 96-well plate, 1% dimethylsulfoxide (DMSO) in buffer was added to negative and positive control groups and the diluted compounds of the present invention in buffer were added to test group. All assays were performed in 100μl reaction volume at room temperature, and the hog gastric vesicle was kept in ice before use. At the beginning of the reaction, 10μl of reaction buffer containing 1% DMSO was added to the negative and positive control groups and to reaction buffer each concentration of compounds in the test group. Then lyophilized vesicle in 5mM Pipes/Tris buffer (pH 6.1) was pre-incubated in the presence of various concentrations of test compounds. After a 5 minute incubation, negative and positive buffers were respectively added to the previous reaction mixture. As the substrate, ATP was added to the reaction buffer, and incubated for 30 minutes at 37° C. Enzymatic activity was stopped by the addition of colorimetric reagent (2X malachite green, 1X ammonium molybdate, X polyvinyl alcohol, 2X H2O) and the amount of mono phosphate (Pi) in the reaction was measured at 620nm using the micro plate reader (Genios Pro, TECAN). The difference between the Pi production with K^+and without K^+is taken as K^+stimulated H^+/K^+-ATPase activity. The IC50s of test compounds were calculated from each % inhibition value of compounds using the method of Litchfield-Wilcoxon (J. Pharmacol. Exp. Ther. (1949) 96, 99).
# [2] = test system: basal gastric acid secretion; assay: Inhibitory effects on basal gastric acid secretion in pylorus-ligated rats (Shay's rat model); assay type: in vivo, Sprague Dawley (SD) rats; settings: oral, one hour before pylorus ligation, total acid output 5 hours after ligation, male SD rats
# Protocol: Test Example 2. Inhibitory effects on basal gastric acid secretion in pylorus-ligated rats. Inhibitory effects of the compounds of the present invention on basal gastric acid secretion were performed according to Shay's rat model (Shay, H., et al., 1945, gastroenterology, 5, 43-61). Male Sprague Dawley (SD) rats (200±10 g body weight) were divided into 3 groups (n=5) and fasted for 24 hours with free access to water. Control group was orally administered with 0.5% methylcellulose alone and the other groups were orally administered with test compounds suspended in 0.5% methyl-cellulose solution at doses of 1, 3 and 10 mg/kg/5 ml one hour before pylorus ligation. Under ether anesthesia, the abdomens of the rats were incised and then the pylorus was ligated. 5 hours after ligation, the animals were sacrificed, and the gastric contents were collected. The collected contents were centrifuged at 1,000×g for 10 minutes to obtain the gastric juice. Total acid output was measured by 0.01N NaOH volume (ueq/ml) for automatic titration of the gastric juice to pH 7.0 and the ED50s of test compounds were calculated using the Litchfield-Wilcoxon method. % inhibitory activity was calculated from the following equation and the results are shown in Table 2. %inhibitory activity of test compound=(total acid output of control group−total acid output of the group treated with test compounds)/total acid output of control group X 100
# [3] = molecular target: T2, hog gastric H+/K+-ATPase (Sus scrofa, UniProt P19156); assay: Reversible inhibition of hog gastric H+/K+-ATPase (Washout method); assay type: biochemical
# T2 construct: from tissue; host or cells: hog gastric fundic mucosa; gastric vesicles/microsomes, lyophilized
# Protocol: Gastric vesicles were prepared from hog fundic mucosa using the method of Saccomani et al. (Saccomani G, Stewart H B, Shqw D, Lewin M and Sachs G, Characterization of gastric mucosal membranes. IX. Fraction and purification of K-ATPase-containing vesicles by zonal centrifugation and free-flow electrophoresis techinque. Biochem. Biophy. Acta.(BBA)—Biomembranes 465, 311-330, 1977.). This material was lyophilized and stored at −70° C. The protein content of gastric vesicles was determined by the Bradford method using bovine serum albumin as a standard (Bradford M M, A rapid and sensitive method for the quantitation of microgram quantities of protein utilizing the principle of protein-dye binding. Anal Biochem. 72, 248-254, 1976).
# Activity of H^+/K^+-ATPase in hog microsome (lyophilized vesicle) was measured by the inorganic phosphate released from ATP using an one-step colorimetric detection method at the concentration at which the test compounds have 50% inhibition of the proton pump (Chan K M, Delfert D, and Junger K D, A direct colorimetric assay for Ca^2+-stimulated ATPase activity. Anal Biochem, 157, 375-380, 1986). […]
# T1 sequence (P19156 whole entry): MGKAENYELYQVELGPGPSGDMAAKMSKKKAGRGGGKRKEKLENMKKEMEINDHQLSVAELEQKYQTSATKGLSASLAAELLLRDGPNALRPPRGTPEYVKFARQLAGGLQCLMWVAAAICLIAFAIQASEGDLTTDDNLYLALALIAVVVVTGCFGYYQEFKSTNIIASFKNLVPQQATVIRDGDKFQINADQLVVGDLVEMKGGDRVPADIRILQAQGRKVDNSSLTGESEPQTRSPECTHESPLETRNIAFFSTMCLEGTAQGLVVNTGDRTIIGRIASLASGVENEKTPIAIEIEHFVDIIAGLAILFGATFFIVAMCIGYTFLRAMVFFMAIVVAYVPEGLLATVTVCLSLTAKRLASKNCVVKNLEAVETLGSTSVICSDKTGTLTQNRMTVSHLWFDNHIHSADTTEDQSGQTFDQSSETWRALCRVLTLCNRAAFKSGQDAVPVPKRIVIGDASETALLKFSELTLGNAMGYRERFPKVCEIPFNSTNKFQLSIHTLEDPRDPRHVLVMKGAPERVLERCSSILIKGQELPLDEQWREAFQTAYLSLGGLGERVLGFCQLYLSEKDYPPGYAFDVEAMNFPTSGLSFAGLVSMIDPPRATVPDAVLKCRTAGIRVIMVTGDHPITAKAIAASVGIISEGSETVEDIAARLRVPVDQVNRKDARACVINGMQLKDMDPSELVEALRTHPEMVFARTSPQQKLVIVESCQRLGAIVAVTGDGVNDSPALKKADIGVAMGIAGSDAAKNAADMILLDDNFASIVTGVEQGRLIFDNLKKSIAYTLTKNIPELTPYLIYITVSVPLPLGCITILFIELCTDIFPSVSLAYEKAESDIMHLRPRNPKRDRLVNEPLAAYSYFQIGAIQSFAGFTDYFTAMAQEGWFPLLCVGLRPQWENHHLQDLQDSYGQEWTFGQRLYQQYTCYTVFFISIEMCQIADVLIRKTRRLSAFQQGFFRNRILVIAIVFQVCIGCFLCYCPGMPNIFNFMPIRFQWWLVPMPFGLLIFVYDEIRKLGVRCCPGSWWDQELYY
# T1 sequence (P18434 whole entry partner): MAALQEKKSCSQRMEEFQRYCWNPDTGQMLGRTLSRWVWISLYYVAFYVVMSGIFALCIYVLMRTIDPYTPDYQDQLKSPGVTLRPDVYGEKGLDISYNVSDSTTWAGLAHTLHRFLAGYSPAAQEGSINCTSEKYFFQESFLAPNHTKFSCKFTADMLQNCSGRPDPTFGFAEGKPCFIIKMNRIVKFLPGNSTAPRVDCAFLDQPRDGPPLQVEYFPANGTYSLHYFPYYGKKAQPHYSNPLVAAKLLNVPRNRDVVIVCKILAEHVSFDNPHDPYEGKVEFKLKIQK
# T2 sequence (P19156 whole entry): as the sequence (P19156 whole entry) above
# T2 sequence (P18434 whole entry partner): as the sequence (P18434 whole entry partner) above
Structure (SMILES),IC50 [1] [nM],ED50 [2] [mg/kg],"inhibition of H+/K+-ATPase activity after washout ([3]; after washout, compared with non-treated group)","inhibition of H+/K+-ATPase activity before washout ([3]; before washout, test compound at the concentration at which it has 50% inhibition) [%]"
"Cc1c(C)n(Cc2ccccc2)c2c(OCc3ccc(F)cc3)cncc12.Cl [Example 12, 1-benzyl-7-(4-fluorobenzyloxy)-2,3-dimethyl-1H-pyrrolo[3,2-c]pyridine hydrochloride]",10,3.3,–,–
"CCCn1c(C)c(C)c2cncc(N3CCc4ccccc4C3)c21.Cl [Example 38, 2-(2,3-dimethyl-1-propyl-1H-pyrrolo[3,2-c]pyridin-7-yl)-1,2,3,4-tetrahydroisoquinoline hydrochloride]",190,–,did not inhibit,50
"C#CCn1c(C)c(C)c2cncc(OCc3ccc(F)cc3)c21.Cl [Example 2, 7-(4-fluorobenzyloxy)-2,3-dimethyl-1-(prop-2-ynyl)-1H-pyrrolo[3,2-c]pyridine hydrochloride]",10,1.1,–,–
"CCCn1c(C)c(C)c2cncc(OCc3ccc(F)cc3)c21.Cl [Example 16, 7-(4-fluorobenzyloxy)-2,3-dimethyl-1-propyl-1H-pyrrolo[3,2-c]pyridine hydrochloride]",10,1.8,–,–
